This is an account of results in US8592383B2, “Cycloalkyl-fused tetrahydroquinolines as CRTH2 receptor modulators” (Merck Sharp & Dohme Corp., priority 2011, dated 2013).

For one test, the target named is T1, hCRTH2 (Homo sapiens, UniProt Q9Y5Y4).
T1 sequence (Q9Y5Y4 1-395): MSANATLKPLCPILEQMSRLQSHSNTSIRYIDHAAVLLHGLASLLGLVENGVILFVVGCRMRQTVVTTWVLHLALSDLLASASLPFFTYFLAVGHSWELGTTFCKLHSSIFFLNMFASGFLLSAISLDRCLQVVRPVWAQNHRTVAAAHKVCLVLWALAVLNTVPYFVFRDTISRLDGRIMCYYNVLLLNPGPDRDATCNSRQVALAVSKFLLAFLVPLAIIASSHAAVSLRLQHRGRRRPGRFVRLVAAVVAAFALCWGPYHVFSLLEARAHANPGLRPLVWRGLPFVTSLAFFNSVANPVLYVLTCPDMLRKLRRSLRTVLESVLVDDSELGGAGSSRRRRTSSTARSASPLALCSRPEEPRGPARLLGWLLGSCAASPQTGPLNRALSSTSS
On the set-up: expressed in transfected cells; host or cells: HEK (human embryonic kidney) cells expressing hCRTH2. As to conditions: Radioligand Binding Assay B; 0.7 nM [3H]PGD2, HEK-hCRTH2 membranes. Here is the method:
The filters were then washed with 4 mL of the same buffer and residual radioligand bound to the filter was determined by liquid scintillation counting following equilibration in 25 μl Ultima Gold F™ (Unifilter) (Packard).
`COC(=O)CCC(=O)N(C1CC1)C1c2ccc(F)cc2N(C(=O)c2ccccc2)C2CCCC21` (racemic) [16C, Methyl 4-{cyclopropyl[cis,cis-6-fluoro-4-(phenylcarbonyl)-2,3,3a,4,9,9a-hexahydro-1H-cyclopenta[b]quinolin-9-yl]amino}-4-oxobutanoate] returned an inhibition constant Ki of 0.14 µM. Turning to `CCN(C(=O)CCC(=O)O)C1c2ccccc2N(C(=O)c2cccnc2)C2CCCC12` (racemic) [13E, 4-{ethyl[cis,cis-4-(pyridin-3-ylcarbonyl)-2,3,3a,4,9,9a-hexahydro-1H-cyclopenta[b]quinolin-9-yl]amino}-4-oxobutanoic acid], the Ki came out at 0.123 µM.

The test is the same for the next values; noted with them: Radioligand Binding Assay B; Table B, rated A-D.
The molecule `O=C(O)CCC(=O)N(C1CC1)C1c2ccc(F)cc2N(C(=O)c2ccc(Oc3ccccc3)cc2)C2CCCC21` (racemic) [16E, 4-{cyclopropyl[cis,cis-6-fluoro-4-[(4-phenoxyphenyl)carbonyl]-2,3,3a,4,9,9a-hexahydro-1H-cyclopenta[b]quinolin-9-yl}amino)-4-oxobutanoic acid] displayed a Ki of 0.001 to 0.005 µM. Take `COC(=O)CCC(=O)N(C1CC1)C1c2ccc(F)cc2N(C(=O)c2ccccc2)C2CCCC21` (racemic) [16C, Methyl 4-{cyclopropyl[cis,cis-6-fluoro-4-(phenylcarbonyl)-2,3,3a,4,9,9a-hexahydro-1H-cyclopenta[b]quinolin-9-yl]amino}-4-oxobutanoate]: the Ki lay within 0.0201 to 0.2 µM. `O=C(O)CCC(=O)N(C1CC1)C1c2ccccc2N(C(=O)C2CC2)C2CCCC21` (racemic) [14G, 4-{cyclopropyl[cis,cis-4-(cyclopropylcarbonyl)-2,3,3a,4,9,9a-hexahydro-1H-cyclopenta[b]quinolin-9-yl]amino}-4-oxobutanoic acid]: the Ki lay within 0.0201 to 0.2 µM.

Molecule `O=C(O)CCC(=O)N(C1CC1)[C@@H]1c2ccccc2N(C(=O)OCc2ccccc2)[C@@H]2CC[C@@H]21` (racemic) [compound 25, 4-[{cis,cis-3-[(Benzyloxy)carbonyl]-1,2,2a,3,8,8a-hexahydrocyclobuta[b]quinolin-8-yl}(cyclopropyl)amino]-4-oxobutanoic acid] came in with an inhibitory constant (Ki) of 0.0201 to 0.2 µM. `O=C(O)CCC(=O)N(C1CC1)C1c2ccccc2N(C(=O)c2ccc(Br)cc2)C2CCCC21` (racemic) [14F, 4-[{cis,cis-4-[(4-bromophenyl)carbonyl]-2,3,3a,4,9,9a-hexahydro-1H-cyclopenta[b]quinolin-9-yl}(cyclopropyl)amino]-4-oxobutanoic acid] returned a Ki of 0.0051 to 0.02 µM. Take `COC(=O)CCC(=O)N(C1CC1)C1c2ccc(F)cc2N(C(=O)c2ccc(Oc3ccccc3)cc2)C2CCCC21` (racemic) [16B, Methyl 4-{cyclopropyl[cis,cis-6-fluoro-4-[(4-phenoxyphenyl)carbonyl]-2,3,3a,4,9,9a-hexahydro-1H-cyclopenta[b]quinolin-9-yl}amino)-4-oxobutanoate]: the Ki lay within 0.0051 to 0.02 µM.

`O=C(O)CCC(=O)N(C1CC1)C1c2ccccc2N(C(=O)OCc2ccc(Cl)c(Cl)c2)C2CCCC21` (racemic) [21L, 4-{cyclopropyl[cis, cis-4-{[(3,4-dichlorobenzyl)oxy]carbonyl}-2,3,3a,4,9,9a-hexahydro-1H-cyclopenta[b]quinolin-9-yl]amino}-4-oxobutanoic acid] returned a Ki of 0.0201 to 0.2 µM. The molecule `CN(C(=O)/C=C/C(=O)O)C1c2ccccc2N(C(=O)c2ccc(OC(F)(F)F)cc2)C2CCCC12` (racemic) [17Q, (2E)-4-[[cis,cis-2,3,3a,4,9,9a-hexahydro-4-[4-(trifluoromethoxy)benzoyl]-1H-cyclopenta[b]quinolin-9-yl]methylamino]-4-oxo-2-butenoic acid] returned a Ki of 0.201 to 7.5 µM.

The molecule `COC(=O)CCC(=O)N(C1CC1)C1c2ccccc2N(C(=O)c2ccc(OC(F)(F)F)cc2)C2CCC21` (racemic) [compound 26, Methyl 4-{cyclopropyl[cis,cis-3-{[4-(trifluoromethoxy)phenyl]carbonyl}-1,2,2a,3,8,8a-hexahydrocyclobuta[b]quinolin-8-yl]amino}-4-oxobutanoate] came in with a Ki of 0.0201 to 0.2 µM. For the molecule `O=C(O)CCC(=O)N(C1CC1)[C@@H]1c2ccccc2N(c2nnc(Cc3ccccc3)o2)[C@@H]2CCC[C@@H]21` (racemic) [compound 36, 4-{[cis-4-(5-Benzyl-1,3,4-oxadiazol-2-yl)-2,3,3a,4,9,9a-hexahydro-1H-cyclopenta[b]quinolin-9-yl](cyclopropyl)amino}-4-oxobutanoic acid], the Ki lay in the range of 0.0201 to 0.2 µM. Turning to `O=C(O)CCC(=O)N(C1CC1)[C@@H]1c2ccccc2N(C(=O)OCc2ccccc2)[C@@H]2CCCC[C@@H]21` (racemic) [compound 28, 4-[{cis,cis-10-[(Benzyloxy)carbonyl]-1,2,3,4,4a,9,9a,10-octahydroacridin-9-yl}(cyclopropyl)amino]-4-oxobutanoic acid], the Ki fell in the range of 0.0201 to 0.2 µM. Regarding `CN(C(=O)/C=C/C(=O)O)C1c2ccccc2N(C(=O)c2ccccc2)C2CCCC12` (racemic) [17P, (2E)-4-[[cis,cis-4-benzoyl-2,3,3a,4,9,9a-hexahydro-1H-cyclopenta[b]quinolin-9-yl]methylamino]-4-oxo-2-butenoic acid], the Ki is 0.201 to 7.5 µM.

Consider `O=C(O)CCC(=O)N(C1CC1)C1c2ccccc2N(C(=O)OCc2ccccc2F)C2CCCC21` (racemic) [21D, 4-{cyclopropyl[cis, cis-4-{[(2-fluorobenzyl)oxy]carbonyl}-2,3,3a,4,9,9a-hexahydro-1H-cyclopenta[b]quinolin-9-yl]amino}-4-oxobutanoic acid], for which the Ki lay within 0.0201 to 0.2 µM. `CCN(C(=O)CCC(=O)O)[C@@H]1c2ccccc2N(C(=O)OCc2ccccc2)[C@@H]2CCC[C@H]12` (racemic) [compound 13, 4-[{cis,cis-4-[(Benzyloxy)carbonyl]-2,3,3a,4,9,9a-hexahydro-1H-cyclopenta[b]quinolin-9-yl}(ethyl)amino]-4-oxobutanoic acid] yielded a Ki of 0.0051 to 0.02 µM. Still for that read-out and setting: next, `O=C(O)CCC(=O)N(C1CC1)C1c2ccccc2N(C(=O)c2cccc(N3CCOCC3)c2)C2CCCC21` (racemic) [14H, 4-(cyclopropyl{cis,cis-4-[(3-morpholin-4-ylphenyl)carbonyl]-2,3,3a,4,9,9a-hexahydro-1H-cyclopenta[b]quinolin-9-yl}amino)-4-oxobutanoic acid]: 0.0201 to 0.2 µM; `O=C(O)CCC(=O)N(C1CC1)C1c2ccccc2N(C(=O)OCc2ccc3ccccc3c2)C2CCCC21` (racemic) [21C, 4-(cyclopropyl{cis, cis-4-[(naphthalen-2-ylmethoxy)carbonyl]-2,3,3a,4,9,9a-hexahydro-1H-cyclopenta[b]quinolin-9-yl}amino)-4-oxobutanoic acid]: 0.0201 to 0.2 µM; `O=C(O)CCC(=O)N(C1CC1)C1c2ccccc2N(C(=O)OCC2CC2)C2CCCC21` (racemic) [21i, 4-(cyclopropyl{cis, cis-4-[(cyclopropylmethoxy)carbonyl]-2,3,3a,4,9,9a-hexahydro-1H-cyclopenta[b]quinolin-9-yl}amino)-4-oxobutanoic acid]: 0.0201 to 0.2 µM.

Molecule `CC(C)OC(=O)N1c2ccccc2C(N(C(=O)CCC(=O)O)C2CC2)C2CCCC21` (racemic) [compound 21, 4-(Cyclopropyl{cis,cis-4-[(1-methylethoxy)carbonyl]-2,3,3a,4,9,9a-hexahydro-1H-cyclopenta[b]quinolin-9-yl}amino)-4-oxobutanoic acid] came in with a Ki of 0.0201 to 0.2 µM. Molecule `O=C(O)CCC(=O)N(c1ccccc1)C1c2ccccc2N(C(=O)OCc2ccccc2)C2CCCC21` (racemic) [12C, 4-[{cis,cis-4-[(benzyloxy)carbonyl]-2,3,3a,4,9,9a-hexahydro-1H-cyclopenta[b]quinolin-9-yl}(phenyl)amino]-4-oxobutanoic acid] showed a Ki of 0.0051 to 0.02 µM. Turning to `O=C(O)CCC(=O)N(C1CC1)C1c2ccccc2N(C(=O)OCc2ccccn2)C2CCCC21` (racemic) [21G, 4-(cyclopropyl{cis, cis-4-[(pyridin-2-ylmethoxy)carbonyl]-2,3,3a,4,9,9a-hexahydro-1H-cyclopenta[b]quinolin-9-yl}amino)-4-oxobutanoic acid], the Ki was 0.0201 to 0.2 µM. The molecule `O=C(O)CCC(=O)N(C1CC1)C1c2ccccc2N(C(=O)NCc2ccccc2)C2CCCC21` (racemic) [23C, 4-{[cis, cis-4-(benzylcarbamoyl)-2,3,3a,4,9,9a-hexahydro-1H-cyclopenta[b]quinolin-9-yl](cyclopropyl)amino}-4-oxobutanoic acid] registered a Ki of 0.0201 to 0.2 µM.

With `O=C(O)/C=C/C(=O)N(CC1CC1)C1c2ccccc2N(C(=O)c2ccccc2)C2CCCC12` (racemic) [17H, (2E)-4-[[cis,cis-4-benzoyl-2,3,3a,4,9,9a-hexahydro-1H-cyclopenta[b]quinolin-9-yl](cyclopropylmethyl)amino]-4-oxo-2-butenoic acid], the Ki was 0.201 to 7.5 µM. In turn, `O=C(O)COC(=O)N(C1CC1)[C@@H]1c2ccccc2N(C(=O)c2ccc(OC(F)(F)F)cc2)[C@@H]2CCC[C@@H]21` (racemic) [compound 31, ({Cyclopropyl[cis,cis-4-{[4-(trifluoromethoxy)phenyl]carbonyl}-2,3,3a,4,9,9a-hexahydro-1H-cyclopenta[b]quinolin-9-yl]carbamoyl}oxy)acetic acid] had a Ki of 0.0051 to 0.02 µM. With `O=C(O)CCC(=O)N(C1CC1)C1c2ccccc2N(c2nnc(-c3ccc(F)cc3)o2)C2CCCC21` (racemic) [36B, racemic 4-(cyclopropyl{cis, cis-4-[5-(4-fluorophenyl)-1,3,4-oxadiazol-2-yl]-2,3,3a,4,9,9a-hexahydro-1H-cyclopenta[b]quinolin-9-yl}amino)-4-oxobutanoic acid], the Ki fell in the range of 0.0201 to 0.2 µM. In turn, `CCN(C(=O)CCC(=O)O)C1c2ccccc2N(C(=O)c2cccnc2)C2CCCC12` (racemic) [13E, 4-{ethyl[cis,cis-4-(pyridin-3-ylcarbonyl)-2,3,3a,4,9,9a-hexahydro-1H-cyclopenta[b]quinolin-9-yl]amino}-4-oxobutanoic acid] came in with a Ki of 0.0201 to 0.2 µM.

What is called Ki is a dissociation constant, usually derived from enzyme kinetics or from competition with a known ligand.
